Test results taken from US7189519B2, “Bead-based detection of ligand-GPCR-G protein complexes” (STC.UNM, priority 1998, dated 2007).
Residues, ends and D or L forms follow the SMILES beside them. *: point of attachment. For = O=C*

Tested on: FPR-GFP with Gαβγ on DCNi beads (LR^FG ternary complex)
Experiment: Standard LRG assembly assay with FPR-GFP (R^F) on G protein beads, flow cytometry
Type: biochemical, human
Settings: for EC50: standard assembly with 30 nM R^F, three experiments, read-out: EC50 for LRG formation
Description: Standard LRG Assembly Assay. […] Each mixture was mixed by pipetting to ensure a uniform starting suspension of the beads in 96 V-well plates (Costar), and then mixed at low speed on a vortex mixer at 7° for two hours. The 10 μl assays were individually brought to 200 μl with 0.1% dodecyl maltoside in buffer A in 12×75 mm tubes for flow cytometric measurement of fluorescence of the beads. LRG assembly was defined as the difference between fluorescence without GTPγS and that with GTPγS. All determinations were done in duplicate.

| SMILES | EC50 [nM] | calculated maximal assembly, of the LRG assembly of the longer peptides (near the limit of solubility of fML) |
| --- | --- | --- |
| CSCC[C@H](NC=O)C(=O)N[C@@H](CC(C)C)C(=O)N[C@@H](Cc1ccccc1)C(=O)N[C@@H](Cc1ccccc1)C(=O)O [fMLFF] (For-MLFF-OH; C-terminus assumed) | 27 | – |
| CSCC[C@H](NC=O)C(=O)N[C@@H](CC(C)C)C(=O)O [fML] (For-Met-Leu-OH; C-terminus assumed) | 5300 | 78+/−3% |
